In PubChem BioAssay (NCI):
Several values for one entry are separate records, joined by “and”; a condition that tells them apart may be missing. Identical values can stand only once.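 The compound was tested at five concentrations on cells cultured in 96-well plates, with a 48-hour exposure period. Here, GI50 denotes the concentration required for 50% inhibition of growth. Definition used: TGI = concentration required for complete inhibition of growth.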

Assays:
Assay in all cases: DTP human tumour cell line panel, 48 h
[1] = system: NCI-H226 lung
[2] = system: CAKI-1 renal
[3] = system: CCRF-CEM leukemia
[4] = system: SN12C renal
[5] = system: SF-539 CNS
[6] = system: KM12 colon
[7] = system: M19-MEL melanoma
[8] = system: SK-MEL-28 melanoma
[9] = system: RPMI-8226 leukemia
[10] = system: SW-620 colon
[11] = system: K-562 leukemia
[12] = system: HT29 colon
[13] = system: UACC-257 melanoma
[14] = system: RXF 393 renal
[15] = system: OVCAR-5 ovarian
[16] = system: SNB-75 CNS
[17] = system: HOP-62 NSCLC
[18] = system: SK-MEL-2 melanoma
[19] = system: UO-31 renal
[20] = system: LOX IMVI melanoma
[21] = system: SK-OV-3 ovarian
[22] = system: OVCAR-3 ovarian
[23] = system: TK-10 renal
[24] = system: SK-MEL-5 melanoma
[25] = system: NCI-H460 lung
[26] = system: ACHN renal
[27] = system: XF 498 CNS
[28] = system: MOLT-4 leukemia
[29] = system: A549 NSCLC
[30] = system: DMS 273 small cell lung
[31] = system: LXFL 529 NSCLC
[32] = system: UACC-62 melanoma
[33] = system: OVCAR-8 ovarian
[34] = system: M14 melanoma
[35] = system: A498 renal
[36] = system: COLO 205 colon
[37] = system: DLD-1 colon
[38] = system: MALME-3M melanoma
[39] = system: DMS 114 small cell lung
[40] = system: IGROV1 ovarian
[41] = system: HCT-15 colon
[42] = system: U251 CNS
[43] = system: SNB-19 CNS
[44] = system: EKVX NSCLC
[45] = system: SNB-78 CNS
[46] = system: NCI-H23 lung
[47] = system: HCC-2998 colon
[48] = system: HCT-116 colon
[49] = system: KM20L2 colon
[50] = system: HL-60(TB) leukemia
[51] = system: SF-268 CNS
[52] = system: NCI-H522 lung
[53] = system: SF-295 CNS
[54] = system: 786-0 renal
[55] = system: SR leukemia
[56] = system: HOP-92 NSCLC
[57] = system: OVCAR-4 ovarian
[58] = system: HOP-18 NSCLC

Compound: COC(=O)[C@@H]1c2[nH]c3ccccc3c2C[C@@H]2c3ccccc3NC(=O)[C@@H]21
- TGI [1]: > 60.8 µM
- TGI [2]: > 100 µM
- TGI [3]: > 100 µM
- TGI [4]: > 100 µM
- TGI [5]: > 100 µM
- TGI [6]: > 100 µM
- TGI [7]: > 100 µM
- TGI [8]: > 100 µM
- TGI [9]: > 100 µM
- TGI [10]: > 100 µM
- TGI [11]: > 100 µM
- TGI [12]: > 100 µM
- TGI [13]: > 100 µM
- TGI [14]: > 100 µM
- TGI [15]: > 100 µM
- TGI [16]: 60.6 µM
- TGI [17]: 54.3 µM
- TGI [18]: > 100 µM
- TGI [19]: > 100 µM
- TGI [20]: > 100 µM
- TGI [21]: > 100 µM
- TGI [22]: > 100 µM
- TGI [23]: > 100 µM
- TGI [24]: > 100 µM
- TGI [25]: > 100 µM
- TGI [26]: > 100 µM
- TGI [27]: > 100 µM
- TGI [28]: > 100 µM
- TGI [29]: > 100 µM
- TGI [30]: > 100 µM
- TGI [31]: > 100 µM
- TGI [32]: > 100 µM
- TGI [33]: > 100 µM
- TGI [34]: > 100 µM
- TGI [35]: > 100 µM
- TGI [36]: > 100 µM
- TGI [37]: > 100 µM
- TGI [38]: > 100 µM
- TGI [39]: > 100 µM
- TGI [40]: > 100 µM
- TGI [41]: > 100 µM
- TGI [42]: > 100 µM
- TGI [43]: > 100 µM
- TGI [44]: > 100 µM
- TGI [45]: > 100 µM
- TGI [46]: > 100 µM
- TGI [47]: > 100 µM
- TGI [48]: > 100 µM
- TGI [49]: > 100 µM
- TGI [50]: > 100 µM
- TGI [51]: > 31.6 µM
- TGI [52]: > 100 µM
- TGI [53]: > 31.6 µM
- TGI [54]: > 100 µM

Compound: Cc1c(C)n(COCCO)c2ncnc(N)c12
- TGI [1]: > 100 µM
- TGI [2]: > 100 µM
- TGI [3]: > 100 µM
- TGI [4]: > 100 µM
- TGI [5]: > 100 µM
- TGI [6]: > 100 µM
- TGI [7]: > 100 µM
- TGI [8]: > 100 µM
- TGI [9]: > 100 µM
- TGI [10]: > 100 µM
- TGI [11]: > 100 µM
- TGI [12]: > 100 µM
- TGI [14]: > 100 µM
- TGI [16]: > 100 µM
- TGI [55]: > 100 µM
- TGI [18]: > 100 µM
- TGI [19]: > 100 µM
- TGI [21]: > 100 µM
- TGI [22]: > 100 µM
- TGI [23]: > 100 µM
- TGI [24]: > 100 µM
- TGI [25]: > 100 µM
- TGI [26]: > 100 µM
- TGI [27]: > 100 µM
- TGI [28]: > 100 µM
- TGI [29]: > 100 µM
- TGI [30]: > 100 µM
- TGI [31]: > 100 µM
- TGI [33]: > 100 µM
- TGI [34]: > 100 µM
- TGI [35]: > 100 µM
- TGI [36]: > 100 µM
- TGI [37]: > 100 µM
- TGI [56]: > 100 µM
- TGI [57]: > 100 µM
- TGI [40]: > 100 µM
- TGI [41]: > 100 µM
- TGI [42]: > 100 µM
- TGI [43]: > 100 µM
- TGI [44]: > 100 µM
- TGI [46]: > 100 µM
- TGI [58]: > 100 µM
- TGI [47]: > 100 µM
- TGI [49]: > 100 µM
- TGI [50]: > 100 µM
- TGI [51]: > 100 µM
- TGI [52]: > 100 µM
- TGI [53]: > 100 µM
- TGI [54]: > 100 µM

Compound: NCCSSC/C=C\CSSCCN
- TGI [2]: > 100 µM
- TGI [3]: 68.6 µM
- GI50 [4]: 43.5 µM and 19 µM
- TGI [4]: > 100 µM and 38 µM
- TGI [5]: 70.5 µM and 36.5 µM
- GI50 [6]: 65 µM and 23.4 µM
- TGI [6]: > 100 µM and 62 µM
- TGI [7]: > 100 µM and 95.2 µM
- GI50 [8]: 56 µM and 24.7 µM
- TGI [8]: > 100 µM and 77.8 µM
- TGI [9]: 99.5 µM and 58.8 µM
- TGI [10]: > 64.8 µM and 28.3 µM
- GI50 [11]: 6.31 µM and 15.7 µM
- TGI [11]: 25.4 µM and 40.5 µM
- TGI [12]: > 100 µM and 58.9 µM
- GI50 [13]: 76.8 µM and 29 µM
- TGI [13]: > 100 µM
- TGI [14]: > 100 µM
- TGI [16]: > 100 µM
- GI50 [20]: 26.2 µM and 13 µM
- TGI [20]: > 59.9 µM and 27.9 µM
- GI50 [22]: > 68.6 µM and 25.1 µM
- TGI [22]: > 100 µM and 67.1 µM
- GI50 [24]: > 85.7 µM and 26.9 µM
- TGI [24]: > 100 µM and 77.9 µM
- GI50 [25]: 98.4 µM and 22.2 µM
- TGI [25]: > 100 µM and 51.9 µM
- GI50 [27]: 79.7 µM and 21.6 µM
- TGI [27]: > 100 µM and 69.5 µM
- TGI [28]: 65.2 µM and 53.9 µM
- TGI [30]: > 100 µM and 60.8 µM
- TGI [31]: > 67.2 µM and 44.6 µM
- GI50 [32]: 41.2 µM and 20.2 µM
- TGI [32]: > 100 µM and 41.6 µM
- TGI [33]: > 69.5 µM and 34.6 µM
- TGI [34]: > 100 µM and 42.5 µM
- GI50 [36]: 42.7 µM and 18.4 µM
- TGI [36]: > 100 µM and 34 µM
- GI50 [37]: 33.8 µM and 15.6 µM
- TGI [37]: > 100 µM and 34.9 µM
- TGI [56]: > 100 µM
- GI50 [38]: > 40.4 µM and 17.8 µM
- TGI [38]: > 55.8 µM and 78 µM
- TGI [57]: 77.3 µM and 41.2 µM
- TGI [39]: > 95.1 µM and 44 µM
- TGI [41]: > 100 µM
- TGI [42]: > 100 µM and 67.4 µM
- TGI [45]: > 100 µM
- TGI [46]: > 100 µM
- TGI [48]: > 100 µM
- GI50 [49]: 76.3 µM and 21.6 µM
- TGI [49]: > 100 µM and 45 µM
- TGI [50]: 29.6 µM and 45.7 µM
- GI50 [51]: > 64.9 µM and 29.5 µM
- TGI [51]: > 100 µM
- TGI [52]: 31.4 µM and 29.1 µM
- GI50 [53]: > 90.3 µM and 27.6 µM
- TGI [53]: > 100 µM and 80.8 µM
- GI50 [54]: 56.4 µM and 27.1 µM
- TGI [54]: > 100 µM and 82 µM
